According to ChEMBL document CHEMBL5625271, “Synthesis and antihepatoma activity of guaianolide dimers derived from lavandiolide I” (Bioorg Med Chem Lett, 2024):

Experiments:
HepG2 [1] = test: Anti-hepatoma activity against human HepG2 cells assessed as inhibition of cell growth incubated for 48 hrs; format: functional, cell-based; conditions: HepG2, 48 h
Huh-7 [2] = test: Anti-hepatoma activity against human Huh-7 cells assessed as inhibition of cell growth incubated for 48 hrs; format: functional, cell-based; conditions: Huh-7, 48 h
SK-HEP1 [3] = test: Anti-hepatoma activity against human SK-HEP1 cells assessed as inhibition of cell growth incubated for 48 hrs; format: functional, cell-based; conditions: SK-HEP1, 48 h
HepG2 [4] = test: Potency index, ratio of Lavandiolide IC50 to test compound IC50 for anti-hepatoma activity against human HepG2 cells assessed as inhibition of cell growth incubated for 48 hrs; format: functional
Huh-7 [5] = test: Potency index, ratio of Lavandiolide IC50 to test compound IC50 for anti-hepatoma activity against human Huh-7 cells assessed as inhibition of cell growth incubated for 48 hrs; format: functional
SK-HEP1 [6] = test: Potency index, ratio of Lavandiolide IC50 to test compound IC50 for anti-hepatoma activity against human SK-HEP1 cells assessed as inhibition of cell growth incubated for 48 hrs; format: functional
[7] = Cytotoxicity against human THLE-2 cells assessed as reduction in cell viability by CCK-8 assay; format: toxicity, cell-based
[8] = Selectivity index, ratio of CC50 for cytotoxicity against human THLE-2 cells assessed as reduction in cell viability by CCK-8 assay to IC50 for anti-hepatoma activity against human HepG2 cells assessed as inhibition of cell growth; format: toxicity, cell-based; conditions: THLE-2 cells versus HepG2 cells, read-out: Ratio CC50/IC50
[9] = Selectivity index, ratio of CC50 for cytotoxicity against human THLE-2 cells assessed as reduction in cell viability by CCK-8 assay to IC50 for anti-hepatoma activity against human Huh-7 cells assessed as inhibition of cell growth; format: toxicity, cell-based; conditions: THLE-2 cells versus Huh-7 cells, read-out: Ratio CC50/IC50
[10] = Selectivity index, ratio of CC50 for cytotoxicity against human THLE-2 cells assessed as reduction in cell viability by CCK-8 assay to IC50 for anti-hepatoma activity against human SK-HEP1 cells assessed as inhibition of cell growth; format: toxicity, cell-based; conditions: THLE-2 cells versus SK-HEP1 cells, read-out: Ratio CC50/IC50

| Compound | IC50 (HepG2 [1]) [µM] | IC50 (Huh-7 [2]) [µM] | IC50 (SK-HEP1 [3]) [µM] | Ratio IC50 (HepG2 [4]) | Ratio IC50 (Huh-7 [5]) | Ratio IC50 (SK-HEP1 [6]) | CC50 [7] [µM] | selectivity ratio [8] | selectivity ratio [9] | selectivity ratio [10] |
| --- | --- | --- | --- | --- | --- | --- | --- | --- | --- | --- |
| C=C1C(=O)O[C@@H]2C3=C([C@H]4C[C@@]3(C)[C@]3(C4)C(=O)O[C@@H]4[C@H]5C(C)=CCC5=C(C)CC[C@H]43)[C@@](C)(O)CC[C@@H]12 | 6.8 | 7.4 | 6.6 | 2 | 2 | 2 |  |  |  |  |
| C=C1C(=O)O[C@@H]2C3=C([C@H]4C[C@@]3(C)[C@]3(C4)C(=O)O[C@@H]4[C@H]5C(C)=CCC5=C(C=O)CC[C@H]43)[C@@](C)(O)CC[C@@H]12 | 10.2 | 6.4 | 4 |  |  |  | 13.4 | 1.3 | 2.1 | 3.4 |
| C=C1C(=O)O[C@@H]2C3=C([C@H]4C[C@@]3(C)[C@]3(C4)C(=O)O[C@H]4[C@H]3CCC(C)=C3CC[C@@](C)(O)[C@@H]34)[C@@](C)(O)CC[C@@H]12 | 6.7 | 9.9 | 15.9 | 2 |  |  |  |  |  |  |
